Data set [1] can be described thus: refractive index (Na D-line) (dimensionless). Particulars: 101.33 kPa, Liquid, Standard Abbe refractometry.
For data set [2] the following is noted: for surface tension liquid-gas: Wilhelmy plate method; for mass density: 298.15 K, 101.33 kPa, Liquid.
The nature of data set [3]: xn = mol fraction of the nth substance listed. The following applies: Wilhelmy plate method, x2 = 0.
The nature of data set [4]: refractive index (Na D-line) (dimensionless); xn = mol fraction of the nth substance listed. Particulars: 100.5 kPa, Liquid, Standard Abbe refractometry, x2 = 0.

“And” between values parts separate entries of the source, which are not always exact repeats. Identical values can stand only once. Numbers after ± are expanded uncertainties.

In general, refractive index refers to the speed of light in vacuum divided by its phase velocity in the sample. As a reminder, the surface tension liquid-gas is the work needed to enlarge the surface of a liquid by unit area. In general, mass density refers to mass per unit of volume. As for `CC(=O)OCc1ccccc1` [benzyl ethanoate], the refractive index in data set [1] (288.15 K) is recorded as 1.50439 ± 0.00032; in data set [1] (298.18 K), 1.49982 ± 0.00032; in data set [1] (308.15 K) it was 1.49539 ± 0.00032; in data set [1] (318.15 K) it was 1.49064 ± 0.00032. The surface tension liquid-gas in data set [2] (288.15 K) is given as 37.7 ± 0.41 mN/m; in data set [2] (298.18 K), 36.4 ± 0.41 mN/m; in data set [2] (308.15 K), 35.3 ± 0.41 mN/m; in data set [2] (318.15 K) it was 34.1 ± 0.41 mN/m. Also, the mass density in data set [2] was found to be 1050.75 ± 0.3 kg/m3.
Regarding `CCC(=O)OCc1ccccc1` [benzyl propanoate], the refractive index is given as 1.4995 ± 0.00034 in data set [1] (288.15 K), 1.49498 ± 0.00034 in data set [1] (298.18 K), 1.49074 ± 0.00034 in data set [1] (308.15 K) and 1.48611 ± 0.00034 in data set [1] (318.15 K). Moreover, the surface tension liquid-gas in data set [2] (288.15 K) came out at 36 ± 0.41 mN/m; in data set [2] (298.18 K), 34.8 ± 0.41 mN/m; in data set [2] (308.15 K), 33.6 ± 0.41 mN/m; in data set [2] (318.15 K) it was 32.4 ± 0.41 mN/m. Also, the mass density in data set [2] came to 1027.6 ± 0.4 kg/m3.
Consider `CCO` [ethanol], for which the refractive index in data set [1] (288.15 K) is 1.3633 ± 0.0003 and 1.36333 ± 0.00031; in data set [1] (298.18 K), 1.3594 ± 0.0003 and 1.35941 ± 0.00031; in data set [1] (308.15 K), 1.3553 ± 0.0003 and 1.35531 ± 0.00031; in data set [1] (318.15 K), 1.3515 ± 0.0003 and 1.35148 ± 0.00031. The surface tension liquid-gas amounted to 23 ± 0.4 mN/m in data set [2] (288.15 K), 22.3 ± 0.4 mN/m in data set [2] (298.18 K), 21.5 ± 0.4 mN/m in data set [2] (308.15 K) and 20.6 ± 0.4 mN/m in data set [2] (318.15 K). For the same molecule, the mass density in data set [2] was 785 ± 0.24 kg/m3.
With `CCO` [ethanol] + CC(=O)OCc1ccccc1, the surface tension liquid-gas in data set [3] (288.15 K) was 23 ± 0.4 mN/m; in data set [3] (298.18 K), 22.3 ± 0.4 mN/m; in data set [3] (308.15 K), 21.5 ± 0.4 mN/m; in data set [3] (318.15 K), 20.6 ± 0.4 mN/m. Also, the refractive index worked out at 1.36333 ± 0.00031 in data set [4] (288.15 K), 1.35941 ± 0.00031 in data set [4] (298.18 K), 1.35531 ± 0.00031 in data set [4] (308.15 K) and 1.35148 ± 0.00031 in data set [4] (318.15 K).
As to `CCO` [ethanol] + CCC(=O)OCc1ccccc1, the surface tension liquid-gas is reported as 23 ± 0.4 mN/m in data set [3] (288.15 K), 22.3 ± 0.4 mN/m in data set [3] (298.18 K), 21.5 ± 0.4 mN/m in data set [3] (308.15 K) and 20.6 ± 0.4 mN/m in data set [3] (318.15 K). Besides, the refractive index in data set [4] (288.15 K) stood at 1.36333 ± 0.00031; in data set [4] (298.18 K), 1.35941 ± 0.00031; in data set [4] (308.15 K) it was 1.35531 ± 0.00031; in data set [4] (318.15 K), 1.35148 ± 0.00031.
Consider `CCO` [ethanol] + CCOC(=O)CC(C)=O, for which the surface tension liquid-gas in data set [3] (288.15 K) is reported as 23 ± 0.4 mN/m; in data set [3] (298.18 K), 22.3 ± 0.4 mN/m; in data set [3] (308.15 K), 21.5 ± 0.4 mN/m; in data set [3] (318.15 K), 20.6 ± 0.4 mN/m. For the same molecule, the refractive index in data set [4] (288.15 K) was 1.3633 ± 0.0003; in data set [4] (298.18 K), 1.3594 ± 0.0003; in data set [4] (308.15 K), 1.3553 ± 0.0003; in data set [4] (318.15 K), 1.3515 ± 0.0003.
Take `CCO` [ethanol] + CCOC(=O)CC(C)C: the surface tension liquid-gas in data set [3] (288.15 K) is 23 ± 0.4 mN/m; in data set [3] (298.18 K) it was 22.3 ± 0.4 mN/m; in data set [3] (308.15 K) it was 21.5 ± 0.4 mN/m; in data set [3] (318.15 K), 20.6 ± 0.4 mN/m. Moreover, the refractive index in data set [4] (288.15 K) worked out at 1.36333 ± 0.00031; in data set [4] (298.18 K), 1.35941 ± 0.00031; in data set [4] (308.15 K) it was 1.35531 ± 0.00031; in data set [4] (318.15 K), 1.35148 ± 0.00031.
Turning to `CCO` [ethanol] + CCOC(=O)c1ccccc1O, the surface tension liquid-gas came out at 23 ± 0.4 mN/m in data set [3] (288.15 K), 22.3 ± 0.4 mN/m in data set [3] (298.18 K), 21.5 ± 0.4 mN/m in data set [3] (308.15 K) and 20.6 ± 0.4 mN/m in data set [3] (318.15 K). For the same molecule, the refractive index came to 1.36333 ± 0.00031 in data set [4] (288.15 K), 1.35941 ± 0.00031 in data set [4] (298.18 K), 1.35531 ± 0.00031 in data set [4] (308.15 K) and 1.35148 ± 0.00031 in data set [4] (318.15 K).
With `CCO` [ethanol] + COC(=O)c1ccccc1, the surface tension liquid-gas in data set [3] (288.15 K) was 23 ± 0.4 mN/m; in data set [3] (298.18 K), 22.3 ± 0.4 mN/m; in data set [3] (308.15 K), 21.5 ± 0.4 mN/m; in data set [3] (318.15 K) it was 20.6 ± 0.4 mN/m. Further, the refractive index in data set [4] (288.15 K) is recorded as 1.36333 ± 0.00031; in data set [4] (298.18 K) it was 1.35941 ± 0.00031; in data set [4] (308.15 K), 1.35531 ± 0.00031; in data set [4] (318.15 K), 1.35148 ± 0.00031.
For the molecule `CCOC(=O)c1ccccc1O` [ethyl 2-hydroxybenzoate], the refractive index in data set [1] (288.15 K) amounted to 1.52481 ± 0.00032; in data set [1] (298.18 K), 1.52022 ± 0.00032; in data set [1] (308.15 K) it was 1.51573 ± 0.00032; in data set [1] (318.15 K) it was 1.51116 ± 0.00032. In addition, the surface tension liquid-gas was 37.5 ± 0.41 mN/m in data set [2] (288.15 K), 36.3 ± 0.41 mN/m in data set [2] (298.18 K), 35.2 ± 0.41 mN/m in data set [2] (308.15 K) and 34.4 ± 0.41 mN/m in data set [2] (318.15 K). The mass density in data set [2] came to 1125 ± 0.4 kg/m3.
For `CCOC(=O)CC(C)C` [ethyl 3-methylbutanoate], the refractive index amounted to 1.3988 ± 0.00037 in data set [1] (288.15 K), 1.39401 ± 0.00037 in data set [1] (298.18 K), 1.38931 ± 0.00037 in data set [1] (308.15 K) and 1.38458 ± 0.00037 in data set [1] (318.15 K). Also, the surface tension liquid-gas in data set [2] (288.15 K) was found to be 24.4 ± 0.42 mN/m; in data set [2] (298.18 K), 23.5 ± 0.42 mN/m; in data set [2] (308.15 K), 22.45 ± 0.42 mN/m; in data set [2] (318.15 K), 21.6 ± 0.41 mN/m. Also, the mass density in data set [2] was found to be 859.78 ± 0.82 kg/m3.
On to `CCOC(=O)CC(C)=O` [ethyl 3-oxobutanoate], for which the refractive index in data set [1] (288.15 K) is listed as 1.4209 ± 0.0004; in data set [1] (298.18 K) it was 1.4166 ± 0.0004; in data set [1] (308.15 K), 1.4125 ± 0.0004; in data set [1] (318.15 K), 1.408 ± 0.0004. Also, the surface tension liquid-gas in data set [2] (288.15 K) is reported as 33.3 ± 0.42 mN/m; in data set [2] (298.18 K) it was 32.3 ± 0.42 mN/m; in data set [2] (308.15 K), 31.1 ± 0.42 mN/m; in data set [2] (318.15 K), 30 ± 0.42 mN/m. The mass density in data set [2] turned out to be 1023.45 ± 0.52 kg/m3.
With `COC(=O)c1ccccc1` [methyl benzoate], the refractive index in data set [1] (288.15 K) turned out to be 1.51915 ± 0.00035; in data set [1] (298.18 K) it was 1.51467 ± 0.00035; in data set [1] (308.15 K), 1.50993 ± 0.00035; in data set [1] (318.15 K), 1.50514 ± 0.00035. The surface tension liquid-gas in data set [2] (288.15 K) came out at 38.6 ± 0.43 mN/m; in data set [2] (298.18 K), 37.2 ± 0.43 mN/m; in data set [2] (308.15 K) it was 35.8 ± 0.43 mN/m; in data set [2] (318.15 K), 34.8 ± 0.42 mN/m. In addition, the mass density in data set [2] was 1083.92 ± 0.68 kg/m3.

Source of the values: the NIST ThermoML archive (doi:10.1021/je060139a).
